# Assays:
# [1] = biological target: NS3 serine protease of HCV genotype 1a (Hepatitis C virus genotype 1a, UniProt P27958); experiment: Steady state velocity analysis with NS3 serine protease, HCV genotype 1a; assay type: biochemical; conditions: non-covalent, competitive mode of inhibition, read-out: Inhibitor constant (Ki)
# Excerpt: (§1) A distinguishing feature of the Compound (1) inhibitor series is the presence of a C-terminal carboxylic acid functionality.
# [2] = biological target: NS3 serine protease of HCV genotype 1b (Hepatitis C virus genotype 1b, UniProt P26663); experiment: Steady state velocity analysis with NS3 serine protease, HCV genotype 1b; assay type: biochemical; conditions: non-covalent, competitive mode of inhibition, read-out: Inhibitor constant (Ki)
# Sequence of NS3 serine protease of HCV genotype 1b (P26663 1027-1657): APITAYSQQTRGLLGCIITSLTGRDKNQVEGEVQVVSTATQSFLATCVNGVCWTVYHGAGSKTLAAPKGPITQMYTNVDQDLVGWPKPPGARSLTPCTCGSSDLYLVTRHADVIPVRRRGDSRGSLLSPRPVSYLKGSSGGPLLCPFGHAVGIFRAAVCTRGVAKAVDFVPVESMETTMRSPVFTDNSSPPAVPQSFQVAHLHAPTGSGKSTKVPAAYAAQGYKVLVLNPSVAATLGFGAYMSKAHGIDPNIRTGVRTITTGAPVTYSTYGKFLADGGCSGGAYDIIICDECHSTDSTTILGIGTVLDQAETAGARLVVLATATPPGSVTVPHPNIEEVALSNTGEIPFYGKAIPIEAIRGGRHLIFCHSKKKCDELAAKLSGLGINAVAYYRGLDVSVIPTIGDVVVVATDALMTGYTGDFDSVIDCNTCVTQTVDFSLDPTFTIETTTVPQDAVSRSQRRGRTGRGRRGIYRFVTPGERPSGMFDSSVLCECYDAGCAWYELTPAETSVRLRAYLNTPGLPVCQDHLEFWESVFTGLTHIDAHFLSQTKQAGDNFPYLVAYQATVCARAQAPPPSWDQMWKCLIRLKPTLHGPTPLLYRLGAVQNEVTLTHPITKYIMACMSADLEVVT
# Sequence of NS3 serine protease of HCV genotype 1b (P26663 1658-1711): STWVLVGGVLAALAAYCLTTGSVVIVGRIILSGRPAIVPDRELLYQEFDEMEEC
# Excerpt: as §1
# HCV RNA replication = HCV RNA replication in the replicon cell model system; assay type: cell-based; conditions: human cells
# Excerpt: as §1
# [3] = test system: NS3 protease-dependent polyprotein processing; experiment: NS3 protease-dependent polyprotein processing in HCV replicon-containing cells; assay type: cell-based
# Excerpt: as §1
# [4] = Oral bioavailability in animal species; assay type: in vivo; conditions: various animal species
# Excerpt: as §1
# [5] = Single rising dose trial in healthy male subjects; assay type: in vivo, human
# Procedure: (§2) In a first single rising dose trial in healthy male subjects the tolerability and pharmacokinetic parameters of Compound (1) were investigated. […] The degree of viral load reduction upon administration of Compound (1) was a significant and unexpected finding, with some patients even experiencing up to a 3 log reduction in viral load within 48 hours after the first administration of Compound (1).
# HCV = experiment: Clinical study in patients with chronic HCV infection, viral load; assay type: in vivo, human; conditions: HCV infected patients, oral formulation, within 48 hours after first administration, some patients
# Procedure: as §2
# The term “viral load” with respect to HCV in a mammal means the number of HCV mRNA genome copies per ml of serum present in the mammal. The viral load value can be measured, for example, by mRNA-PCR quantitation in blood samples using Cobas Amplicor HCV Monitor v 2.0 (Roche Diagnostics); Amplicor HCV v 2.0, Roche Diagnostics; HCV Transcription Mediated Amplification (TMA) assay, Bayer Diagnostics; HCV RNA Qualitative Testing (TMA) assay, Bayer Diagnostics; the HCV branched DNA (bDNA) assay version 3.0, Bayer Diagnostics; Versant HCV RNA 3.0 Assay (bDNA), Bayer Diagnostics, and Superquant assay, National Genetics Institute (Los Angeles, Calif.).
# The degree of viral load reduction upon the administration of Compound (1) was a significant and unexpected finding, with some patients even experiencing up to a 3 log reduction in viral load within 48 hours after the first administration of Compound (1). […]
# [6] = Light sensitivity of the oral solution; assay type: physicochemical; conditions: solution in PEG 400:Ethanol 80:20 w/w
# Excerpt: Keep away from direct sunlight and cover with aluminium foil whenever possible.
# Sequence of NS3 serine protease of HCV genotype 1a (P27958 1027-1657): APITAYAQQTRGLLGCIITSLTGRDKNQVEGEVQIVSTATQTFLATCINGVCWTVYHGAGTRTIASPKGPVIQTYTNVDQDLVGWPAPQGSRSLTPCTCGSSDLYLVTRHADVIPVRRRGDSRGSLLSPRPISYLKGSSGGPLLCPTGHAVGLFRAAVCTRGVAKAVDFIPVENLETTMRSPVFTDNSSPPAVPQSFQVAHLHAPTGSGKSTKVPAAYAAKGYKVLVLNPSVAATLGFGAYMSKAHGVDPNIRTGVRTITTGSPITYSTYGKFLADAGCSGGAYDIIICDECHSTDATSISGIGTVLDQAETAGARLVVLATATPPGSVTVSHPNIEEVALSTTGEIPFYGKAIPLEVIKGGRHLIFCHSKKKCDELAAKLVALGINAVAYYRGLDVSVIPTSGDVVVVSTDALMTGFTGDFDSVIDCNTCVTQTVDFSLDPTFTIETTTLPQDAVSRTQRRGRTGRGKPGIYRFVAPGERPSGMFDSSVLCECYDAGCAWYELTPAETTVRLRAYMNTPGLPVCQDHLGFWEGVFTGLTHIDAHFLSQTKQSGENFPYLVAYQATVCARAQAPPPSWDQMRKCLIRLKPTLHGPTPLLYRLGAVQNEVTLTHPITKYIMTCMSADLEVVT
# Sequence of NS3 serine protease of HCV genotype 1a (P27958 1658-1711): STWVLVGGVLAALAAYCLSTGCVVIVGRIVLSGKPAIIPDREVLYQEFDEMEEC
compound,measurement,setting,value
COc1ccc2c(O[C@@H]3C[C@H]4C(=O)N[C@]5(C(=O)O)C[C@H]5/C=C\CCCCC[C@H](NC(=O)OC5CCCC5)C(=O)N4C3)cc(-c3csc(NC(C)C)n3)nc2c1 [Compound (1)],Ki,[1],0.3 nM
same,Ki,[2],0.66 nM
same,Inhibition of HCV RNA replication,HCV RNA replication,low nanomolar inhibition
same,Ability to block NS3 protease-dependent polyprotein processing,[3],block NS3 protease-dependent polyprotein processing
same,Oral bioavailability,[4],orally bioavailable
same,Tolerability,[5],well tolerated up to 2000 mg
same,Reduction in viral load,HCV,≤ 3 log
same,Light sensitivity,[6],light sensitive

# Reference: patent US20040138109A1, “Potent inhibitor of HCV serine protease” (Boehringer Ingelheim Pharmaceuticals, Inc., priority 2002, published 2004)
